In one data set the test system is IL-1β. The following applies: leucocytes isolated from patients within 24 h of the onset of direct ARDS; cited from earlier work.
Data set [1] is described as follows: Solubility of CMT-3 in aqueous solutions (statement). Format: physicochemical.

This is an account of results in patent publication US20250177318A1, “CMT-3 FORMULATIONS AND METHODS OF USING THE SAME” (The Research Foundation for the State University of New York, priority 2022, published 2025).

Regarding `NC(=O)C1=C(O)CC2CC3Cc4cccc(O)c4C(=O)C3=C(O)[C@]2(O)C1=O` (some centres unmarked) [CMT-3, 6-demethyl-6-deoxy-4-de(dimethylamino)tetracycline], the “IL-1β production in alveolar leucocytes” value in the data set with IL-1β was “significantly suppressed”. The “Solubility in aqueous solutions” value in data set [1] is recorded as “barely dissolved in aqueous solutions”.
